According to US20100292231A1, “Indazole Compounds for Treating Inflammatory Disorders, Demyelinating Disorders and Cancers” (priority 2007, published 2010):
Like-named read-outs stand apart in the source and are kept apart here.

Experiments:
Test in all cases: SelectScreen kinase specificity survey
Type in all cases: biochemical
ERBB2 (HER2) = molecular target: T1, ERBB2 (HER2) (Homo sapiens, UniProt P04626); conditions: estimated, abridged dose response curve, read-out: Kinase inhibitory activity EC50
T1 construct: purchased Invitrogen (SelectScreen service)
Description: (§1) Testing of the compounds described in this invention was carried out using the SelectScreen™ platform from Invitrogen, Inc. (Carlsbad. Calif., USA) and the details of its performance are readily viewed via the web by linking to: http://www.invitrogen.com/downloads/SelectScrn_Brochure.pdf.
(§2) Briefly, the approach is based on treating each specific kinase with a unique substrate and optical reporter system in the presence of ATP at 100 micromolar. In controls, the substrate is phosphorylated and a baseline optimal response is recorded.
(§3) The compounds were then re-tested by adding graded amounts of putative inhibitor which were added in 5 separate increments to generate a dose response curve. The latter is obtained by fitting to a 4 parameter Hill equation, a sigmoid saturation equation.
(§4) The same assay system described in Example 2 can be applied in the determination of kinase specificity. It is well understood by medicinal chemists in the development of kinase inhibitors that the resulting molecules often lack specificity. Not only are homologous kinases inhibited by the same class of compounds, but also non-homologous kinases can be affected by allosteric, induced, activated vs inactivated conformation, and protein folding interactions with the putative inhibitor, which otherwise had been designed to be specific. These off target effects are difficult to predict and can only be ruled in or out by empirically surveying a large set of kinases. It is also understood that changes to scaffolds and variation in their chemical decorations may influence the extent of promiscuity in the patterns of kinase inhibition across kinase classes.
(§5) The following experiment was conducted to address this issue. The indazole compound (IV), described in Example 2 and representative of the new genus was tested along with Symadex against a panel of 230 kinases representative of all known kinases classes. Included in the survey were the Flt3, its mutant, and close relatives in the Class III receptor tyrosine kinase class, together with serine-threonine kinases and atypical kinases many of which share no homology of active site with Flt3 as shown, for example, in the respective “genecard” for each kinase and available for inspection at on the web at http://www.genecards.org/.
(§6) Table 3 lists the estimated EC50 values from an abridged dose response curve for Symadex (C-1311) and CF-123. The kinases are listed alphabetically by Group and Family.

GRK4 = molecular target: T2, GRK4 (Homo sapiens, UniProt P32298)
T2 construct: purchased Invitrogen (SelectScreen platform)
Description: as §1, §2, §3, §4, §5, §6

CAMK2D (CaMKII delta) = molecular target: T3, CAMK2D (CaMKII delta) (Homo sapiens, UniProt Q13557); conditions: estimated, abridged dose response curve, read-out: Kinase inhibitory activity EC50
T3 construct: purchased Invitrogen, Inc. (SelectScreen platform)
Description: as §1, §2, §3, §4, §5, §6

PRKCZ (PKC zeta) = molecular target: T4, PRKCZ (PKC zeta) (Homo sapiens, UniProt Q05513); conditions: estimated, abridged dose response curve, read-out: Kinase inhibitory activity EC50
T4 construct: purchased Invitrogen, Inc. (SelectScreen platform)
Description: as §1, §2, §3, §4, §5, §6

JAK3 = molecular target: T5, JAK3 (Homo sapiens, UniProt P52333); conditions: estimated, abridged dose response curve, read-out: Kinase inhibitory activity EC50
T5 construct: purchased Invitrogen (SelectScreen platform)
Description: as §1, §2, §3, §4, §5, §6

RAF1 (cRAF) Y340D Y341D = molecular target: T6, RAF1 (cRAF) Y340D Y341D (Homo sapiens, UniProt P04049, Y340D/Y341D); conditions: estimated, abridged dose response curve, read-out: Kinase inhibitory activity EC50
T6 construct: purchased Invitrogen, Inc. (SelectScreen platform)
Description: as §1, §2, §3, §4, §5, §6

ABL1 G250E = molecular target: T7, ABL1 G250E (Homo sapiens, UniProt P00519, G250E); conditions: estimated, abridged dose response curve, read-out: Kinase inhibitory activity EC50
T7 construct: purchased Invitrogen (SelectScreen platform)
Description: as §1, §2, §3, §4, §5, §6

EGFR (ErbB1) L858R = molecular target: T8, EGFR (ErbB1) L858R (Homo sapiens, UniProt P00533, L858R); conditions: estimated, abridged dose response curve, read-out: Kinase inhibitory activity EC50
T8 construct: purchased Invitrogen (SelectScreen service)
Description: as §1, §2, §3, §4, §5, §6

PRKCE (PKC epsilon) = molecular target: T9, PRKCE (PKC epsilon) (Homo sapiens, UniProt Q02156); conditions: estimated, abridged dose response curve, read-out: Kinase inhibitory activity EC50
T9 construct: purchased Invitrogen, Inc. (SelectScreen platform)
Description: as §1, §2, §3, §4, §5, §6

CDK1/cyclin B (CDC2) = molecular target: T10, CDK1/cyclin B (CDC2) (Homo sapiens, UniProt P06493); conditions: estimated, abridged dose response curve, read-out: Kinase inhibitory activity EC50
T10 construct: purchased Invitrogen (SelectScreen platform)
Description: as §1, §2, §3, §4, §5, §6

IGF1R = molecular target: T11, IGF1R (Homo sapiens, UniProt P08069); conditions: estimated, abridged dose response curve, read-out: Kinase inhibitory activity EC50
T11 construct: purchased Invitrogen (SelectScreen platform)
Description: as §1, §2, §3, §4, §5, §6

MAP3K9 (MLK1) = molecular target: T12, MAP3K9 (MLK1) (Homo sapiens, UniProt P80192); conditions: estimated, abridged dose response curve, read-out: Kinase inhibitory activity EC50
T12 construct: purchased Invitrogen, Inc. (SelectScreen platform)
Description: as §1, §2, §3, §4, §5, §6

PAK4 = molecular target: T13, PAK4 (Homo sapiens, UniProt O96013); conditions: estimated, abridged dose response curve, read-out: Kinase inhibitory activity EC50
T13 construct: purchased Invitrogen (SelectScreen platform)
Description: as §1, §2, §3, §4, §5, §6

CLK1 = molecular target: T14, CLK1 (Homo sapiens, UniProt P49759); conditions: estimated, abridged dose response curve, read-out: Kinase inhibitory activity EC50
T14 construct: purchased Invitrogen (SelectScreen platform)
Description: as §1, §2, §3, §4, §5, §6

PRKG1 (PKG1) = molecular target: T15, PRKG1 (PKG1) (Homo sapiens, UniProt Q13976); conditions: estimated, abridged dose response curve, read-out: Kinase inhibitory activity EC50
T15 construct: purchased Invitrogen, Inc. (SelectScreen platform)
Description: as §1, §2, §3, §4, §5, §6

PHKG2 = molecular target: T16, PHKG2 (Homo sapiens, UniProt P15735); conditions: estimated, abridged dose response curve, read-out: Kinase inhibitory activity EC50
T16 construct: purchased Invitrogen, Inc. (SelectScreen platform)
Description: as §1, §2, §3, §4, §5, §6

KIT = molecular target: T17, KIT (Homo sapiens, UniProt P10721); conditions: estimated, abridged dose response curve, read-out: Kinase inhibitory activity EC50
T17 construct: purchased Invitrogen (SelectScreen platform)
Description: as §1, §2, §3, §4, §5, §6

PRKCQ (PKC theta) = molecular target: T18, PRKCQ (PKC theta) (Homo sapiens, UniProt Q04759); conditions: estimated, abridged dose response curve, read-out: Kinase inhibitory activity EC50
T18 construct: purchased Invitrogen, Inc. (SelectScreen platform)
Description: as §1, §2, §3, §4, §5, §6

NEK4 = molecular target: T19, NEK4 (Homo sapiens, UniProt P51957); conditions: estimated, abridged dose response curve, read-out: Kinase inhibitory activity EC50
T19 construct: purchased Invitrogen, Inc. (SelectScreen service)
Description: as §1, §2, §3, §4, §5, §6

CHEK2 (CHK2) = molecular target: T20, CHEK2 (CHK2) (Homo sapiens, UniProt O96017); conditions: estimated, abridged dose response curve, read-out: Kinase inhibitory activity EC50
T20 construct: purchased Invitrogen, Inc. (SelectScreen platform)
Description: as §1, §2, §3, §4, §5, §6

CSNK1G2 (CK1 gamma 2) = molecular target: T21, CSNK1G2 (CK1 gamma 2) (Homo sapiens, UniProt P78368); conditions: estimated, abridged dose response curve, read-out: Kinase inhibitory activity EC50
T21 construct: purchased Invitrogen (SelectScreen platform)
Description: as §1, §2, §3, §4, §5, §6

DYRK4 = molecular target: T22, DYRK4 (Homo sapiens, UniProt Q9NR20)
T22 construct: purchased Invitrogen (SelectScreen platform)
Description: as §1, §2, §3, §4, §5, §6

AKT3 (PKB gamma) = molecular target: T23, AKT3 (PKB gamma) (Homo sapiens, UniProt Q9Y243); conditions: estimated, abridged dose response curve, read-out: Kinase inhibitory activity EC50
T23 construct: purchased Invitrogen (SelectScreen platform)
Description: as §1, §2, §3, §4, §5, §6

EPHA5 = molecular target: T24, EPHA5 (Homo sapiens, UniProt P54756); conditions: estimated, abridged dose response curve, read-out: Kinase inhibitory activity EC50
T24 construct: purchased Invitrogen (SelectScreen service)
Description: as §1, §2, §3, §4, §5, §6

RPS6KA4 (MSK2) = molecular target: T25, RPS6KA4 (MSK2) (Homo sapiens, UniProt O75676); conditions: estimated, abridged dose response curve, read-out: Kinase inhibitory activity EC50
T25 construct: purchased Invitrogen, Inc. (SelectScreen platform)
Description: as §1, §2, §3, §4, §5, §6

SRC N1 = molecular target: T26, SRC N1 (Homo sapiens, UniProt P12931); conditions: estimated, abridged dose response curve, read-out: Kinase inhibitory activity EC50
T26 construct: purchased Invitrogen (SelectScreen)
Description: as §1, §2, §3, §4, §5, §6

T9 sequence (Q02156 whole entry): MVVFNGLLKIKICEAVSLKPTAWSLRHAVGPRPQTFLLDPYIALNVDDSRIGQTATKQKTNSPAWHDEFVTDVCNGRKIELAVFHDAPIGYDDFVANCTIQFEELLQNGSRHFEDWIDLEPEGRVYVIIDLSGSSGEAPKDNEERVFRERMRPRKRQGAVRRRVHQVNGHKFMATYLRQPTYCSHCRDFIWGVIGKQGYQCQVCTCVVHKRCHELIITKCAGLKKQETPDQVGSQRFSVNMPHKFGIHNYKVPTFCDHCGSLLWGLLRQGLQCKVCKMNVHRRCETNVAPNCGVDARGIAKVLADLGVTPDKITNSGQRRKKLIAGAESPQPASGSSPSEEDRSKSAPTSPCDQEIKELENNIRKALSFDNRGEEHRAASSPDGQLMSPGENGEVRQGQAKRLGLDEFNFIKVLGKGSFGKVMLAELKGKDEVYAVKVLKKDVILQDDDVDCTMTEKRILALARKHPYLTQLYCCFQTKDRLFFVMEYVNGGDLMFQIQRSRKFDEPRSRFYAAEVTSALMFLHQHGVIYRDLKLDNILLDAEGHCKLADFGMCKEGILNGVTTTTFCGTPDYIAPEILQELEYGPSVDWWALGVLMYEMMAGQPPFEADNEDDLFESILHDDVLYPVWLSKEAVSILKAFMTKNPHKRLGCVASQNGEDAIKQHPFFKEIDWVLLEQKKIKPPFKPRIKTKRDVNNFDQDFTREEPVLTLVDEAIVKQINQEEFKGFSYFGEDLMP
T23 sequence (Q9Y243 whole entry): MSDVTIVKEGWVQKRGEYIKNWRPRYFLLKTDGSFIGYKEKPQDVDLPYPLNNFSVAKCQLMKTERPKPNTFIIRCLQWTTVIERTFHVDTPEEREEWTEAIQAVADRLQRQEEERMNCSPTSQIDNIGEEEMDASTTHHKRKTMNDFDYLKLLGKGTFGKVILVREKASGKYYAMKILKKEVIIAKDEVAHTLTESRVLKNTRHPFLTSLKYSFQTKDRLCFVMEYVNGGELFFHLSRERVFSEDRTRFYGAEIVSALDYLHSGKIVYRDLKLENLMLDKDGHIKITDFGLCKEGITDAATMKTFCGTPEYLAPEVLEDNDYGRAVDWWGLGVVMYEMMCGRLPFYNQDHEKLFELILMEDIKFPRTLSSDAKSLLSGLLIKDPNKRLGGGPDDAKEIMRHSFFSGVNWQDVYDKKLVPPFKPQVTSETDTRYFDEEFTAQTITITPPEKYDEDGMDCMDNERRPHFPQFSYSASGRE
T21 sequence (P78368 whole entry): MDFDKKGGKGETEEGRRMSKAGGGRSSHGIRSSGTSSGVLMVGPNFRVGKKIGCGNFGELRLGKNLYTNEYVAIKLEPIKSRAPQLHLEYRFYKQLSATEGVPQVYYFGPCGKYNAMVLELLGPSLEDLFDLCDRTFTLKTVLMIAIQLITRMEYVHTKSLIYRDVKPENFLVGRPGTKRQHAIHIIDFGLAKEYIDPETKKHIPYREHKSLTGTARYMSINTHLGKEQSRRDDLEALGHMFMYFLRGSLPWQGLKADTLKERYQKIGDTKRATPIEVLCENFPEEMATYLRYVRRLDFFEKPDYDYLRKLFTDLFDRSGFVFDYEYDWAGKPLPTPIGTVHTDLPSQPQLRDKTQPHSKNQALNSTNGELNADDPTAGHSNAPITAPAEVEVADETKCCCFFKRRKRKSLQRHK
T20 sequence (O96017 whole entry): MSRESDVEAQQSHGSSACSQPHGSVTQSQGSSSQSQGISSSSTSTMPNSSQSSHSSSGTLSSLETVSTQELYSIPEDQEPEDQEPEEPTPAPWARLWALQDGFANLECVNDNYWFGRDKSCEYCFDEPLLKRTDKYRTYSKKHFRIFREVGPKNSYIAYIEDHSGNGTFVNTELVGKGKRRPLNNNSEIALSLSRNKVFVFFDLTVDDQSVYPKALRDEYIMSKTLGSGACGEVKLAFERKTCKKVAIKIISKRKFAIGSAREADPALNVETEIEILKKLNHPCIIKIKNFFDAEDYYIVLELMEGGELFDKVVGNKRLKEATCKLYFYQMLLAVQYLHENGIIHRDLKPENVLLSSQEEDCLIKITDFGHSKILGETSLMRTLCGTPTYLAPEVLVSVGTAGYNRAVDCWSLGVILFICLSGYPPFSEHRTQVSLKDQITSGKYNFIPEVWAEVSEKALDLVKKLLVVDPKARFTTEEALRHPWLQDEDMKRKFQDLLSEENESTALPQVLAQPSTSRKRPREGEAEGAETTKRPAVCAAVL
T2 sequence (P32298 whole entry): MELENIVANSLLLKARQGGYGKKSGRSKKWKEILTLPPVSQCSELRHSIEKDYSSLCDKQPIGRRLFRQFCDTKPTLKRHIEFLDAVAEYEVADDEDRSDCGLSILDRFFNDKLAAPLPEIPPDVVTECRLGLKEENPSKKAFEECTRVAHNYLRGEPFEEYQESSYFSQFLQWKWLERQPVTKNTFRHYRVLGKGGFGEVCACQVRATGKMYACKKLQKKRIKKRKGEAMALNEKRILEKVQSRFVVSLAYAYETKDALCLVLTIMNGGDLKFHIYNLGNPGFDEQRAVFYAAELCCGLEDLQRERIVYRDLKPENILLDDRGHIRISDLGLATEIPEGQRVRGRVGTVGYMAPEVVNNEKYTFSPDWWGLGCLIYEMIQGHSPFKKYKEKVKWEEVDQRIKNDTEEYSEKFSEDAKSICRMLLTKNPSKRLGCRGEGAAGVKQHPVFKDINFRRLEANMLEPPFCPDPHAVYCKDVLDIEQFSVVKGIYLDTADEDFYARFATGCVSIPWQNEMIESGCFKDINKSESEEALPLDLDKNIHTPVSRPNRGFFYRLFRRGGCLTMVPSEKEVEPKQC
T1 sequence (P04626 23-1255): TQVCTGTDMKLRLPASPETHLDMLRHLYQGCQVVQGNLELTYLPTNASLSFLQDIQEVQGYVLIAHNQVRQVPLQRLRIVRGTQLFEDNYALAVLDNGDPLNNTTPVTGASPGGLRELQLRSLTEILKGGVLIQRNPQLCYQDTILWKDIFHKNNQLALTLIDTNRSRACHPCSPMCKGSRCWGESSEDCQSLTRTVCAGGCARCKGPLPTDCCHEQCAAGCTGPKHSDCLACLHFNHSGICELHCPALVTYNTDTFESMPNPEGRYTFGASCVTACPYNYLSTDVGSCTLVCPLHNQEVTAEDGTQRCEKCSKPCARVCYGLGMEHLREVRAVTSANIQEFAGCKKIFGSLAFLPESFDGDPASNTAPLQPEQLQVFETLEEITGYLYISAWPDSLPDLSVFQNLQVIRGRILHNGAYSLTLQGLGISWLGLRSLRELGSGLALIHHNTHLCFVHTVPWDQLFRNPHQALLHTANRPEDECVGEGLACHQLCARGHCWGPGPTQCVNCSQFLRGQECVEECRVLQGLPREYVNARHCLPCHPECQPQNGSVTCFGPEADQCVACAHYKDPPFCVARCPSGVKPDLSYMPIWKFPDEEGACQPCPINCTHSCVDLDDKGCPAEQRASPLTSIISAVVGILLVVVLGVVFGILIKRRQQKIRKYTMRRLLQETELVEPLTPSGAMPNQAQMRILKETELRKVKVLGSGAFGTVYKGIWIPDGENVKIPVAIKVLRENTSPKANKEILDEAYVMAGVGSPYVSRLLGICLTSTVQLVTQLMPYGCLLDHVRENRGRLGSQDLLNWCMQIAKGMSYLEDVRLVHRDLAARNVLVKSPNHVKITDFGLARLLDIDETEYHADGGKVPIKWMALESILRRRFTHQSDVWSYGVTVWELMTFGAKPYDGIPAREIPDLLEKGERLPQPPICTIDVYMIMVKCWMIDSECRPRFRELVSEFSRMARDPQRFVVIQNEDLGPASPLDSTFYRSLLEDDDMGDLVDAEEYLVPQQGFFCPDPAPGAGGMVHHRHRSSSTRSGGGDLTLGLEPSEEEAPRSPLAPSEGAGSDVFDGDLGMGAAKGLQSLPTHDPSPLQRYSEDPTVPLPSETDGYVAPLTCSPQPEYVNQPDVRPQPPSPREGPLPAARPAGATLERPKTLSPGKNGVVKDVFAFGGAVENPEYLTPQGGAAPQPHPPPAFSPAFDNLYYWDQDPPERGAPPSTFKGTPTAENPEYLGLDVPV
T4 sequence (Q05513 whole entry): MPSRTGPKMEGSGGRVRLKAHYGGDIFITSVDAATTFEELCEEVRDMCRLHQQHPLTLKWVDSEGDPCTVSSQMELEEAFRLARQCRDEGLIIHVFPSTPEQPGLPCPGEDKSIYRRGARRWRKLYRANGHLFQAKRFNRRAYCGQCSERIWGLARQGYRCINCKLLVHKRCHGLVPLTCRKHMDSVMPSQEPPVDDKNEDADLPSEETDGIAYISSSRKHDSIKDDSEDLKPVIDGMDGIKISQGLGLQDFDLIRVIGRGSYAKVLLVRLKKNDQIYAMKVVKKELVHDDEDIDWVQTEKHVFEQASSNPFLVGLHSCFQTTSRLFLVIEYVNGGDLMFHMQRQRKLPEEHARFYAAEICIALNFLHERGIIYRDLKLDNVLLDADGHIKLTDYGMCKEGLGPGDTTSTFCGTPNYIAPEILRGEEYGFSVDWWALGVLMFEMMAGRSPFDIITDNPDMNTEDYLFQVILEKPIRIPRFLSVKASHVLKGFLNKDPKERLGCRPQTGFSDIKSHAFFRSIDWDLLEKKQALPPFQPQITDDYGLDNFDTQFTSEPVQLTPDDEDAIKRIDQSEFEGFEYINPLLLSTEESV
T16 sequence (P15735 whole entry): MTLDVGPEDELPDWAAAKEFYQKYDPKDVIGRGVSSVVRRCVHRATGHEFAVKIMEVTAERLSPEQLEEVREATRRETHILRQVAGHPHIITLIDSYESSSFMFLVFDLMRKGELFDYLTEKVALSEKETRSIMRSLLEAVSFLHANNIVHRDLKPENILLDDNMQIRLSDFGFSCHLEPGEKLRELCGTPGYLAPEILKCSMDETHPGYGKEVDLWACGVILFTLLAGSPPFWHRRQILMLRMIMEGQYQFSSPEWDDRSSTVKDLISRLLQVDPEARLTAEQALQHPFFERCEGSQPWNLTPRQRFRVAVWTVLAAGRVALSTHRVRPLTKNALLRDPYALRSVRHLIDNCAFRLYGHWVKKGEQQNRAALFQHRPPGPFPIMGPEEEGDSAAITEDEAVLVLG

Row | SMILES | EC50 (ERBB2 (HER2)) [µM] | EC50 (CAMK2D (CaMKII delta)) [nM] | EC50 (PRKCZ (PKC zeta)) [µM] | EC50 (JAK3) [µM] | EC50 (RAF1 (cRAF) Y340D Y341D) [µM] | EC50 (ABL1 G250E) [µM] | EC50 (EGFR (ErbB1) L858R) [µM] | EC50 (PRKCE (PKC epsilon)) [nM] | EC50 (CDK1/cyclin B (CDC2)) [µM] | EC50 (IGF1R) [nM] | EC50 (MAP3K9 (MLK1)) [µM] | EC50 (PAK4) [µM] | EC50 (CLK1) [nM] | EC50 (PRKG1 (PKG1)) [µM] | EC50 (PHKG2) [µM] | EC50 (KIT) [nM] | EC50 (PRKCQ (PKC theta)) [µM] | EC50 (NEK4) [µM] | EC50 (CHEK2 (CHK2)) [µM] | EC50 (CSNK1G2 (CK1 gamma 2)) [µM] | further results
1 | CCN(CC)CCNc1ccc2ncn3c4ccc(O)cc4c(=O)c1c23 [Symadex, 5-(2-(diethylamino)ethylamino)-8-hydroxy-6H-imidazo[4,5,1-de]acridin-6-one, reference compound] | > 5 | 2060 | > 5 | > 5 | > 5 | > 5 | > 5 | > 5000 | > 5 | > 5000 | > 5 | > 5 | 2180 | > 5 | > 5 | 2250 | > 5 | > 5 | > 5 | > 5 | EC50 (GRK4): > 5 µM; EC50 (DYRK4): > 5 µM; EC50 (AKT3 (PKB gamma)): > 5 µM; EC50 (EPHA5): > 5 µM; EC50 (RPS6KA4 (MSK2)): > 5 µM; EC50 (SRC N1): 3150 nM
2 | CN(C)CCCNc1ccc2ncn3c4ccc5[nH]ncc5c4c(=O)c1c23 [Compound (IV)] | > 5 | 218 | > 5 | > 5 | > 5 | 4.05 | > 5 | 2520 | 3.95 | 1560 | > 5 | > 5 | 444 | > 5 | 3.72 | 1100 | > 5 | > 5 | > 5 | > 5 | EC50 (GRK4; GRK4, estimated, abridged dose response curve, read-out: Kinase inhibitory activity EC50): > 5 µM; EC50 (DYRK4; DYRK4, estimated, abridged dose response curve, read-out: Kinase inhibitory activity EC50): > 5 µM; EC50 (AKT3 (PKB gamma)): > 5 µM; EC50 (EPHA5): > 5 µM; EC50 (RPS6KA4 (MSK2)): > 5 µM; EC50 (SRC N1): 511 nM
